The source of these data is US6271342A, “Sugar-modified cytostatics” (Bayer Aktiengesellschaft, priority 1995, dated 2001).

For orientation: IC50 means the concentration at which inhibition is half-maximal. Low values mean higher potency, high ones lower potency.

Data set [1] concerns B16F10 tumour. Briefly: In vivo test, survival of mice with transplanted B16F10 tumour. On the set-up: species or system mouse. To be noted: treated daily. How it is done:
Mice are inoculated with 5×10^6 B16F10 tumour cells on day 0. The animals in which tumour cells are transplanted develop solid peritoneal tumours and are then treated daily with test substances or with the vehicle control. In the control group, 50% of the animals usually die between day 14 and 20. The test substances are administered in buffer or an organic solvent system comprising 20% methanol and 20% dimethyl sulphoxide in 0.7% sodium chloride solution.
The therapeutic result arises from the prolonging of the survival time of the treated animals. […] A therapeutic index can be estimated from the tolerance and prolonging of the survival time.

The test system of data set [2] is HT 29. Put plainly: Growth inhibition test (MTT) for cytotoxic properties. It is filed as cell-based, human. To be noted: Table 1a, glycoconjugates of batracyline. The gist of the method: (§1)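 SW 480 and HT 29 cells in RPMI 1640 with 10% FCS were seeded at 50,000 cells/ml, grown 1 day at 37 °C, then exposed to compound added in DMSO. MTT (5 mg/ml stock) was applied after day 3 and day 6 for 5 h, and formazan absorbance was read at 540 nm. IC50 values reported.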

Data set [3] concerns SW 480. The description is as above. The settings on record: Table 1a, glycoconjugates of batracyline. It is filed as cell-based, human. The gist of the method:
as §1

Data set [4] is described as follows: Acute toxicity, single administration. It is filed as in vivo, nu/nu naked mice. To be noted: for acute toxicity detected: dose of 400 mg/kg; for acute toxicity detected / individual dose of the substances which can be tolerated: single administration; for Individual dose tolerated in mg/kg of mouse, i.v.: single administration i.v., aqueous solution; for Individual dose tolerated in mg/kg of mouse, i.p.: single administration i.p., solution in dimethyl sulphoxide. How it is done: Determination of the Acute Toxicity of Glycoconjugates of Batracyline (Single Administration)
The acute toxicity of the batracyline derivatives was determined on nu/nu naked mice.
The substances administered i.v., as aqueous solutions, and the substances administered i.p., as solutions in dimethyl sulphoxide, were injected once in concentrations of up to 400 mg of substance per kg of mouse.
The individual dose tolerated was calculated from the decrease in the weight of the animals up to 21 days after administration and from the number of animals surviving.

The subject of data set [5] is hepatoma.
Method: Cleavage Kinetics With Cells
(§2) 2.25 ml of PBS are incubated together with 225 μl of a cell suspension (30 mg/ml) and 25 μl of substrate stock solution (1 mg/ml in 3% dimethyl sulphoxide in PBS) at 37° C. After 1 hour and 24 hours, samples of in each case 1 ml are taken, mixed with 1 ml of ethanol and left to stand at 4° C. for 20 minutes. After centrifugation (5 minutes at 3500 rpm), 100 μl of supernatant are taken for the HPLC analysis.
Data set [6] concerns SW-480.
Method: Cleavage Kinetics With Cells
as §2
Data set [7] in a line: Cleavage kinetics with human blood (HPLC). To be noted: Table 2a; 37° C.; * = cleavage product is N-[D-alanyl]-batracyline. It is filed as in vitro ADME. The text has this: In Vitro Investigation of the Cleavability of the Glycoconjugates
Cleavage Kinetics With Human Blood

`COc1cc([C@@H]2c3cc4c(cc3[C@@H](O[C@@H]3O[C@@H]5CO[C@@H](C)O[C@H]5[C@H](O)[C@H]3O)[C@H]3COC(=O)[C@H]23)OCO4)cc(OC)c1O` [Etoposide, reference compound]: in data set [1] (5 mg/kg), the “% survivors Day 0” value is 100%, the “% survivors Day 20” value is 90%, the “% survivors Day 25” value is reported as 80% and the “% survivors Day 30” value was 80%. Moreover, the “% survivors Day 35” value in data set [1] (5 mg/kg) is on record as 70%.
In the case of `CC(NC(=O)C(N)CCCCNC(=S)Nc1ccc(OC2OC(CO)C(O)C(OCC(=O)[O-])C2O)cc1)C(=O)Nc1ccc2c(c1)CN1C(=O)c3ccccc3C1=N2.[Na+]` [Example 3.33, N-{N^ε -[O-(3-O-Carboxymethyl-β-D-galactopyranosyl)-4-hydroxy-phenylamino-thiocarbonyl]-lysyl-D-alanyl}-batracyline, sodium salt], the IC50 in data set [2] stood at 70 µM. Moreover, the IC50 in data set [3] turned out to be 90 µM. Further, in data set [4], the acute toxicity detected entry is reported as “no acute toxicity”; the “individual dose of the substances which can be tolerated” value is “more than 200 mg of substance per kg of mouse”; the “Individual dose tolerated in mg/kg of mouse, i.v.” value is recorded as > 400 mg/kg of mouse.
Taken in the same sequence, the figures for `CC(NC(=O)C(CCCCNC(=S)Nc1ccc(OC2OC(CO)C(O)C(OCC(=O)[O-])C2O)cc1)NC(=S)Nc1ccc(OC2OC(CO)C(O)C(OCC(=O)[O-])C2O)cc1)C(=O)Nc1ccc2nc3n(c(=O)c2c1)Cc1ccccc1-3.[Na+].[Na+]` [Example 6.81, N-{N^α,N^ε -Bis-[O-(3-O-carboxymethyl-β-D-galactopyranosyl)-4hydroxy-phenylamino-thiocarbonyl]-lysyl-D-alanyl}-batracyline, di-sodium salt] were 30 µM, 30 µM, “no acute toxicity”, “more than 200 mg of substance per kg of mouse” and > 400 mg/kg of mouse.
Molecule `CC(NC(=O)C(CO)NC(=S)Nc1ccc(OC2OC(C)C(O)C(O)C2O)cc1)C(=O)Nc1ccc2c(c1)Cn1c-2nc2ccccc2c1=O` [Example 7.3, N-{N-[O-(β-L-Fucosyl)-4-hydroxy-phenylamino-thiocarbonyl]-seryl-D-alanyl]-batracyline] came in with an IC50 in data set [3] of 50 µM. Further, in data set [5], the “% cleavage in hepatoma 1 hour” value came out at 0% and the “% cleavage in hepatoma 24 hours” value is 0%. In data set [6], the “% cleavage in SW-480 1 hour” value was 0% and the “% cleavage in SW-480 24 hours” value is reported as 0%. For the same molecule, in data set [7], the “% cleavage in human blood 1 hour” value is 0% and the “% cleavage in human blood 24 hours” value turned out to be 0%.
Take `CO[C@H]1[C@H](O)[C@@H](Oc2ccc(Nc3nc(NCCO)nc(NCCCC[C@H](N)C(=O)N[C@H](C)C(=O)Nc4ccc5c(=O)n6c(nc5c4)-c4ccccc4C6)n3)cc2)O[C@@H](C)[C@H]1O.O=C(O)C(F)(F)F` [Example 8.2, N-{N^ε -[4-Hydroxyethylamino-2-[O-(3-O-methyl-β-L-fucosyl)-4-hydroxy-phenylamino]-triazin-6-yl]-lysyl-D-alanyl}-batracyline, trifluoroacetate]: in data set [4], the “individual dose of the substances which can be tolerated” value is on record as “more than 200 mg of substance per kg of mouse” and the “Individual dose tolerated in mg/kg of mouse, i.p.” value (“Individual dose tolerated … i.p.” below) is > 200 mg/kg of mouse.
Turning to `CO[C@H]1[C@H](O)[C@@H](Oc2ccc(NC(=S)NCCCC[C@@H](NC(=S)Nc3ccc(O[C@H]4O[C@@H](C)[C@@H](O)[C@@H](OC)[C@@H]4O)cc3)C(=O)NC3C=CCC4CN(c5c(F)cc6c(=O)c(C(=O)[O-])cn(C7CC7)c6c5Cl)CC43)cc2)O[C@@H](C)[C@H]1O.[Na+]` (stereo partly drawn) [Example 11.12, N-{N^α,N^ε -Bis-[O-(3-O-methyl-β-L-fucosyl)-4-hydroxy-phenylamino-thiocarbonyl]-D-lysyl}-quinolone-a, sodium salt], in data set [1] (1 mg/kg), the “% survivors Day 0” value came to 100%, the “% survivors Day 20” value is listed as 90%, the “% survivors Day 25” value turned out to be 60% and the “% survivors Day 30” value came to 30%. Besides, in data set [1] (1 mg/kg), the “% survivors Day 35” value worked out at 30%. Besides, in data set [1] (100 mg/kg), the “% survivors Day 0” value was found to be 100%, the “% survivors Day 20” value worked out at 100%, the “% survivors Day 25” value was determined as 100% and the “% survivors Day 30” value stood at 90%. The “% survivors Day 35” value in data set [1] (100 mg/kg) came to 90%.
With “N-[Lysyl-D-alanyl]-batracyline, di-trifluoroacetate [Example 2.13]”, in data set [4], the “Individual dose tolerated … i.p.” value was 50 mg/kg of mouse and the “Individual dose tolerated in mg/kg of mouse, i.v.” value was 25 mg/kg of mouse.
In turn, “N-{N^α -[O-(3-O-Carboxymethyl-β-L-fucosyl)-4-hydroxyphenylaminothiocarbonyl] -N^α -[acetyl]-lysyl-D-alanyl batracyline [Example 5.9]” gave an IC50 in data set [2] of 70 µM. In data set [3], this molecule gave an IC50 of 70 µM. Further, in data set [5], the “% cleavage in hepatoma 1 hour” value is on record as 0% and the “% cleavage in hepatoma 24 hours” value was 0%. In data set [6], the “% cleavage in SW-480 1 hour” value is on record as 0% and the “% cleavage in SW-480 24 hours” value came to 0%. Further, in data set [7], the “% cleavage in human blood 1 hour” value was 0% and the “% cleavage in human blood 24 hours” value worked out at 0%.
On to “N-{N^α -[O-(4-O-Methyl-β-L-fucosyl)-4-hydroxy-phenylamino-thiocarbonyl]-lysy l-D-alanyl}-batracyline [Example 4.4]”, for which inhibition in data set [2] was half-maximal at 25 µM (IC50). In data set [3], this molecule registered an IC50 of 30 µM. Moreover, in data set [5], the “% cleavage in hepatoma 1 hour” value is reported as 0% and the “% cleavage in hepatoma 24 hours” value was determined as 0%. Further, in data set [6], the “% cleavage in SW-480 1 hour” value was 0% and the “% cleavage in SW-480 24 hours” value is listed as 0%. In addition, in data set [7], the “% cleavage in human blood 1 hour” value is reported as 0% and the “% cleavage in human blood 24 hours” value came to 0%.
On to “N-{N^α,N^ε -Bis-[O-(β-L-fucosyl)-4-hydroxy-phenylamino-thiocarbonyl]-lysyl-D-ala nyl}-batracyline [Example 6.14]”, for which, in data set [4], the acute toxicity detected result was “no acute toxicity”; the “individual dose of the substances which can be tolerated” value is on record as “more than 200 mg of substance per kg of mouse”; the “Individual dose tolerated … i.p.” value is recorded as > 400 mg/kg of mouse.
On to “N-{N^ε -[O-(3,4-Di-O-methyl-β-D-galactopyranosyl)-4-hydroxy-phenylamino-thio carbonyl]-lysyl-D-alanyl}-batracyline, trifluoroacetate [Example 3.16]”, for which, in data set [4], the “individual dose of the substances which can be tolerated” value is “more than 200 mg of substance per kg of mouse” and the “Individual dose tolerated … i.p.” value is > 200 mg/kg of mouse.
